Here are results for 3 compounds from patent publication US10988523B2, “Modified lipidated Relaxin B chain peptides and their therapeutic use” (Sanofi, priority 2018, dated 2021).

*1 amine or outer side, *2 acyl side, *3 side chain or, on linkers, in order; H or OH if unused. Where a SMILES comes first, the peptide text is derived from it. Side-chain parts run from the residue outwards. [ ]: non-standard residue; d: D form. The star is where a group is joined. Lys(Me3) = C[N+](C)(C)CCCC[C@H](N)C(=O)O; γGlu = O=C(O)[C@H](CCC(=O)[*:2])N[*:1]; Arg(Me) = CNC(=N)NCCC[C@H](N)C(=O)O; Stearoyl = CCCCCCCCCCCCCCCCCC(=O)*; Palmitoyl = CCCCCCCCCCCCCCCC(=O)*; αMeK = C[C@](N)(CCCCN)C(=O)O; Nle = CCCC[C@H](N)C(=O)O; AEEA = NCCOCCOCC(=O)O; Aib = CC(C)(N)C(=O)O

What is called Emax is the greatest response seen or fitted, relative to the assay's reference. A word on the EC50: it is the concentration needed to bring the measured effect to its halfway point.

This assay has as its target T1, RXFP1 (Homo sapiens, UniProt Q9HBX9).
T1 construct: OVCAR5 cells expressing endogenous RXFP1; endogenous in cells; host or cells: OVCAR5 cells
T1 sequence (Q9HBX9 1-757): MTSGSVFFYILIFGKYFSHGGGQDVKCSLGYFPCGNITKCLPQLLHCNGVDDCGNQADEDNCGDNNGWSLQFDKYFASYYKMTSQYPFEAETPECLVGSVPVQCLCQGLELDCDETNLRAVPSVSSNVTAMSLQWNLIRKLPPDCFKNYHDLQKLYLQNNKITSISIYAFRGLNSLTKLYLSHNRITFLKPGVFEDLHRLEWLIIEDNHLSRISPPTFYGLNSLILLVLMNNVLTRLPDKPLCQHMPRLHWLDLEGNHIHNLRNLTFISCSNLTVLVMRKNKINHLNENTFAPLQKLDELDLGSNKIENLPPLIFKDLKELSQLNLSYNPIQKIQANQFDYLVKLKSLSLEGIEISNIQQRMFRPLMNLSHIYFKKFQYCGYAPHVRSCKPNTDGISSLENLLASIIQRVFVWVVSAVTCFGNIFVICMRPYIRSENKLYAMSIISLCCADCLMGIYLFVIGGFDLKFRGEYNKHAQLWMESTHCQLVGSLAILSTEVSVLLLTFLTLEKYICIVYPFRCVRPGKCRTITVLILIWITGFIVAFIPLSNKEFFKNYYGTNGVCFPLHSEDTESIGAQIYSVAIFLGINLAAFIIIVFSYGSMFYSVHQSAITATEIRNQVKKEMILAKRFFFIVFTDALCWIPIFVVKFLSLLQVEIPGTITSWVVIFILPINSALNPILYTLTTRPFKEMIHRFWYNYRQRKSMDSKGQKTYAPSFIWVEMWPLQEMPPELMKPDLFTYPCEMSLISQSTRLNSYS
Kind of assay: OVCAR5 cAMP assay (HTRF), RXFP1 agonist activity. It counts as cell-based. The conditions noted are these: for Emax: OVCAR-5, maximal cAMP relative to H2-relaxin maximum (100%), read-out: EMax, OVCAR 5 cells (cAMP); for EC50: OVCAR5 cells, cAMP HTRF, read-out: EC50 (nM), OVCAR 5 cells (cAMP). The method in brief:
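cAMP accumulation readout: after 1 mM IBMX for 40 min, endogenous-RXFP1 OVCAR5 cells got rising peptide concentrations without FCS, 30 min, 37° C, then lysis with HTRF cAMP reagents. Nonlinear regression gave EC50; Emax expressed relative to H2-relaxin maximum, same occasion.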
In general terms: Changes in cAMP serve as a functional read-out for many G protein-coupled receptors.

In the case of `CCCCCCCCCCCCCCCCCC(=O)N[C@@H](CCC(=O)N[C@@H](CCC(=O)N[C@@H](CCC(=O)N[C@@H](CCC(=O)NCCOCCOCC(=O)NCCOCCOCC(=O)NCCOCCOCC(=O)NCCCC[C@H](NC(=O)[C@H](CCCCNC(C)=O)NC(=O)[C@H](CCCC[N+](C)(C)C)NC(=O)[C@H](CCCNC(=N)NC)NC(=O)[C@](C)(CCCCN)NC(=O)[C@H](CO)NC(=O)[C@H](Cc1c[nH]c2ccccc12)NC(=O)[C@@H](NC(=O)[C@H](CO)NC(=O)[C@H](CCCC)NC(=O)CNC(=O)[C@H](CCC(=O)O)NC(=O)C(C)(C)NC(=O)C(C)(C)NC(=O)[C@@H](NC(=O)[C@H](CCCCNC(C)=O)NC(=O)[C@H](C)NC(=O)[C@H](CCCNC(=N)N)NC(=O)[C@@H](NC(=O)[C@H](CCCCN)NC(=O)[C@H](CCC(=O)O)NC(=O)[C@H](CCCNC(=N)N)NC(=O)CNC(=O)[C@H](CCC(=O)O)NC(=O)[C@H](CC(C)C)NC(C)=O)C(C)C)[C@@H](C)CC)[C@@H](C)O)C(N)=O)C(=O)O)C(=O)O)C(=O)O)C(=O)O` [compound 138] (Ac-LEGREKVRAK(Ac)I[Aib][Aib]EG[Nle]STWS[αMeK][Arg(Me)][Lys(Me3)]K(Ac)K([AEEA-AEEA-AEEA-γGlu-γGlu-γGlu-γGlu-Stearoyl])-NH2), the maximal effect (Emax) was 91%.

Consider `CCCCCCCCCCCCCCCC(=O)N[C@@H](CCC(=O)NCCCC[C@H](NC(=O)CC[C@H](NC(=O)CC[C@H](NC(=O)CC[C@H](NC(=O)COCCOCCNC(=O)COCCOCCNC(=O)COCCOCCNC(=O)COCCOCCNC(=O)[C@H](CCCCNC(C)=O)NC(=O)[C@H](C)NC(=O)[C@H](C)NC(=O)[C@](C)(CCCCN)NC(=O)[C@H](CO)NC(=O)[C@H](Cc1ccccc1)NC(=O)[C@@H](NC(=O)[C@H](CO)NC(=O)[C@H](CCCC)NC(=O)CNC(=O)[C@H](CCC(=O)O)NC(=O)C(C)(C)NC(=O)C(C)(C)NC(=O)[C@@H](NC(=O)[C@H](CCCCNC(C)=O)NC(=O)[C@H](C)NC(=O)[C@H](CCCNC(=N)N)NC(=O)[C@@H](NC(=O)[C@H](CCCCN)NC(=O)[C@H](CCC(=O)O)NC(=O)[C@H](CCCNC(=N)N)NC(=O)CNC(=O)[C@H](CCC(=O)O)NC(=O)[C@H](CC(C)C)NC(C)=O)C(C)C)[C@@H](C)CC)[C@@H](C)O)C(=O)O)C(=O)O)C(=O)O)C(N)=O)C(=O)O` [compound 139] (Ac-LEGREKVRAK(Ac)I[Aib][Aib]EG[Nle]STFS[αMeK]AAK(Ac)[AEEA][AEEA][AEEA][AEEA][γGlu][γGlu][γGlu]K([γGlu-Palmitoyl])-NH2), for which the 50% effective concentration (EC50) came out at 0.3 nM and the Emax was determined as 92%.

For `CCCCCCCCCCCCCCCC(=O)N[C@@H](CCC(=O)N[C@@H](CCC(=O)N[C@@H](CCC(=O)N[C@@H](CCC(=O)NCCOCCOCC(=O)NCCOCCOCC(=O)NCCOCCOCC(=O)NCCOCCOCC(=O)NCCCC[C@H](NC(=O)[C@H](CCCCNC(C)=O)NC(=O)[C@H](CCCCN)NC(=O)[C@H](CCCNC(=N)N)NC(=O)[C@](C)(CCCCN)NC(=O)[C@H](CO)NC(=O)[C@H](Cc1ccccc1)NC(=O)[C@@H](NC(=O)[C@H](CO)NC(=O)[C@H](CCCC)NC(=O)CNC(=O)[C@H](CCC(=O)O)NC(=O)C(C)(C)NC(=O)C(C)(C)NC(=O)[C@@H](NC(=O)[C@H](CCCCNC(C)=O)NC(=O)[C@H](C)NC(=O)[C@H](CCCNC(=N)N)NC(=O)[C@@H](NC(=O)[C@H](CCCCN)NC(=O)[C@H](CCC(=O)O)NC(=O)[C@H](CCCNC(=N)N)NC(=O)CNC(=O)[C@H](CCC(=O)O)NC(=O)[C@H](CC(C)C)NC(C)=O)C(C)C)[C@@H](C)CC)[C@@H](C)O)C(N)=O)C(=O)O)C(=O)O)C(=O)O)C(=O)O` [compound 140] (Ac-LEGREKVRAK(Ac)I[Aib][Aib]EG[Nle]STFS[αMeK]RKK(Ac)K([AEEA-AEEA-AEEA-AEEA-γGlu-γGlu-γGlu-γGlu-Palmitoyl])-NH2), the EC50 is 0.4 nM and the Emax amounted to 88%.
